In patent US20250277012A1 (Protagonist Therapeutics, Inc., priority 2021, published 2025):
Like-named read-outs stand apart in the source and are kept apart here. Positions of bridges follow the written chain, without caps; N, C: chain ends. Non-standard residues stand in square brackets, D forms with d. Residues, ends and D or L forms follow the SMILES beside them. Groups on a side chain read outwards from the residue. *: point of attachment. X1 = C[N+](C)(CCNC(=O)CCCCCCCCCCCCCCCCC(=O)O)CC(=O)*; X5 = CCCCCCCCCCCCCCCC(=O)NCC[N+](C)(C)CC(=O)*; C18 diacid = O=C(O)CCCCCCCCCCCCCCCCC(=O)*; Dip = N[C@H](C(=O)O)C(c1ccccc1)c1ccccc1; Palmitoyl = CCCCCCCCCCCCCCCC(=O)*; NMeF = CN[C@@H](Cc1ccccc1)C(=O)O; NMeI = CC[C@H](C)[C@H](NC)C(=O)O; 3Pal = N[C@@H](Cc1cccnc1)C(=O)O; β3hF = N[C@H](CC(=O)O)Cc1ccccc1; Aad = N[C@@H](CCCC(=O)O)C(=O)O; NMeK = CN[C@@H](CCCCN)C(=O)O; αMeK = C[C@](N)(CCCCN)C(=O)O; Isovaleryl = CC(C)CC(=O)*; hCys = N[C@@H](CCS)C(=O)O; Dap = NC[C@H](N)C(=O)O; AEEA = NCCOCCOCC(=O)O; Inp = O=C(O)C1CCNCC1; Ahx = NCCCCCC(=O)O

What was measured:
[1] = biological target: T1, ferroportin (Homo sapiens, UniProt Q9NP59); test: FPN activity assay: ferroportin-GFP internalization/degradation in HEK293 cells; type: cell-based; parameters: expressed in transfected cells; settings: ferroportin-GFP internalization/degradation, Table 6E, read-out: FPN IC50
T1 sequence (Q9NP59 1-571): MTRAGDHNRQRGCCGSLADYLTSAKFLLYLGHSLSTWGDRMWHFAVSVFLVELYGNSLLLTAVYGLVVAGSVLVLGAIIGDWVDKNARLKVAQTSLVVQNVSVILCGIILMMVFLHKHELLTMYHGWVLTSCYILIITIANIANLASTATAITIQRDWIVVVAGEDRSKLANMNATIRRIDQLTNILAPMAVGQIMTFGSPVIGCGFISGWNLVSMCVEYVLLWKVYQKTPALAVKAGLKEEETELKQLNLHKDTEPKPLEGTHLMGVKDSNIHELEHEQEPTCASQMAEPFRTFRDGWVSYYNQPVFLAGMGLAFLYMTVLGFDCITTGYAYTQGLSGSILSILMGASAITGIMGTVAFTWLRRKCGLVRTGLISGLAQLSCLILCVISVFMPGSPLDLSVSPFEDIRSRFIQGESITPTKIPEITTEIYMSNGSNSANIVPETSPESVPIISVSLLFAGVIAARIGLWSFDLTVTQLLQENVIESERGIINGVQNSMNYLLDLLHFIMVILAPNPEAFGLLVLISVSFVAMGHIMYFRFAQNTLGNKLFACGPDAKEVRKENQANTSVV
Description: Following internalization, the ferroporin protein is degraded.
A retro inverse peptide is a peptide with a reversed sequence in all D amino acids. An example is that Hy-Glu-Thr-His-NH2 becomes Hy-DHis-DThr-DGlu-NH2. The EC50 of these reference compounds for ferroportin internalization/degradation was determined according to the FPN activity assay described above. These peptides served as control standards.

[2] = biological target: T1, ferroportin; test: T47D cell-based ferroportin internalization assay in presence of mouse serum albumin (MSA); parameters: a human breast carcinoma adherent cell line which endogenously expresses ferroportin; host or cells: T47D; settings: Table 6E
Outline: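 Peptide potency for inducing ferroportin internalization was measured in T47D cells in the presence of serum albumin. Cells grown in RPMI with fetal bovine serum were seeded in 96-well plates at 80-100 k cells per well in 100 ul and rested overnight. Dilution series of test peptides were preincubated 30 min at room temperature, then added to the cells after the medium was aspirated.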

[3] = T47D internalization assay in presence of mouse serum albumin (MSA)
[4] = T47D internalization assay with MSA

SMILES: CC(C)CC(=O)N[C@@H](CCC(=O)O)C(=O)N[C@H](C(=O)N[C@@H](Cc1cnc[nH]1)C(=O)N[C@H](C(=O)N1CCC[C@H]1C(=O)N[C@H]1CSSC[C@@H](C(=O)N(C)[C@@H](CCCCNC(=O)COCCOCCNC(=O)COCCOCCNC(=O)[C@H](CN)NC(=O)CCCCCCCCCCCCCCCCC(=O)O)C(=O)N[C@H](C(=O)N(C)[C@@H](CCCCN)C(N)=O)C(c2ccccc2)c2ccccc2)NC1=O)C(c1ccccc1)c1ccccc1)[C@@H](C)O [compound 275] (Isovaleryl-ETH[Dip]PCC[NMeK]([AEEA-AEEA-Dap-C18 diacid])[Dip][NMeK]-NH2; disulfide 6-7)
- DC50 ([1]; HEK293 cells): 10 to 100 nM
- IC50 [2, 3]: 10 to 100 nM

SMILES: COC(=O)CC[C@H](NC(=O)CC(C)C)C(=O)N[C@H](C(=O)N[C@@H](Cc1c[nH]cn1)C(=O)N[C@H](C(=O)N1CCC[C@H]1C(=O)N[C@H]1CSSC[C@@H](C(=O)N[C@@](C)(CCCCNC(=O)COCCOCCNC(=O)COCCOCCNC(=O)[C@H](CN)NC(=O)CCCCCCCCCCCCCCCCC(=O)O)C(=O)N[C@H](CC(=O)N[C@H](CCCCN)C(N)=O)Cc2ccccc2)NC1=O)C(c1ccccc1)c1ccccc1)[C@@H](C)O [compound 301] (Isovaleryl-E(OMe)TH[Dip]PCC[αMeK]([AEEA-AEEA-Dap-C18 diacid])[β3hF][dK]-NH2; disulfide 6-7)
- DC50 ([1]; HEK293 cells): 10 to 100 nM
- IC50 [2, 3]: 10 to 100 nM

SMILES: CC(C)CC(=O)N[C@@H](CCCC(=O)O)C(=O)N[C@H](C(=O)N[C@@H](Cc1cccnc1)C(=O)N[C@H](C(=O)N1CCC[C@H]1C(=O)N[C@H]1CSSC[C@@H](C(=O)N(C)[C@@H](CCCCNC(=O)COCCOCCNC(=O)COCCOCCNC(=O)[C@H](CN)NC(=O)CCCCCCCCCCCCCCCCC(=O)O)C(=O)N[C@H](C(=O)N[C@H](CCCCN)C(N)=O)C(c2ccccc2)c2ccccc2)NC1=O)C(c1ccccc1)c1ccccc1)[C@@H](C)O [compound 242] (Isovaleryl-[Aad]T[3Pal][Dip]PCC[NMeK]([AEEA-AEEA-Dap-C18 diacid])[Dip][dK]-NH2; disulfide 6-7)
- DC50 ([1]; HEK293 cells): 10 to 100 nM
- IC50 [2, 3]: 10 to 100 nM

SMILES: CCCCCCCCCCCCCCCC(=O)NCC[N+](C)(C)CC(=O)NCCCC[C@@H](C(=O)N[C@H](C(=O)N[C@H](CCCCN)C(N)=O)C(c1ccccc1)c1ccccc1)N(C)C(=O)[C@@H]1CSSC[C@H](NC(=O)[C@@H]2CCCN2C(=O)[C@@H](NC(=O)[C@H](Cc2cnc[nH]2)NC(=O)[C@@H](NC(=O)[C@H](CCC(=O)O)NC(=O)CC(C)C)[C@@H](C)O)C(c2ccccc2)c2ccccc2)C(=O)N1 [compound 194] (Isovaleryl-ETH[Dip]PCC[NMeK](X5)[Dip][dK]-NH2; disulfide 6-7)
- DC50 ([1]; at least 18 hours incubation): 10 to 100 nM
- IC50 [2, 4]: 1 to 10 nM

SMILES: CCCCCCCCCCCCCCCC(=O)NCCCCCC(=O)NCCCC[C@@H](C(=O)N[C@H](CC(=O)N[C@H](CCCCN)C(N)=O)Cc1ccccc1)N(C)C(=O)[C@@H]1CSSC[C@H](NC(=O)[C@@H]2CCCN2C(=O)[C@@H](NC(=O)[C@H](Cc2cnc[nH]2)NC(=O)[C@@H](NC(=O)[C@H](CCC(=O)O)NC(=O)CC(C)C)[C@@H](C)O)C(c2ccccc2)c2ccccc2)C(=O)N1 [compound 308] (Isovaleryl-ETH[Dip]PCC[NMeK]([Ahx-Palmitoyl])[β3hF][dK]-NH2; disulfide 6-7)
- DC50 ([1]; HEK293 cells): 10 to 100 nM
- IC50 [2, 3]: 1 to 10 nM

SMILES: COC(=O)CC[C@H](NC(=O)CC(C)C)C(=O)N[C@H](C(=O)N[C@@H](Cc1c[nH]cn1)C(=O)N[C@H](C(=O)N1CCC[C@H]1C(=O)N[C@H]1CSSC[C@@H](C(=O)N(C)[C@@H](CCCCNC(=O)CCCCCNC(=O)C[N+](C)(C)CCNC(=O)CCCCCCCCCCCCCCCCC(=O)O)C(=O)N[C@H](C(=O)N[C@H](CCCCN)C(N)=O)C(c2ccccc2)c2ccccc2)NC1=O)C(c1ccccc1)c1ccccc1)[C@@H](C)O [compound 232] (Isovaleryl-E(OMe)TH[Dip]PCC[NMeK]([Ahx-X1])[Dip][dK]-NH2; disulfide 6-7)
- DC50 ([1]; HEK293 cells): 10 to 100 nM
- IC50 [2, 3]: 10 to 100 nM

SMILES: CC(C)CC(=O)N[C@@H](CCC(=O)O)C(=O)N[C@H](C(=O)N[C@@H](Cc1c[nH]cn1)C(=O)N[C@H](C(=O)N1CCC[C@H]1C(=O)N[C@H]1CCSSCC[C@@H](C(=O)N(C)[C@@H](CCCCNC(=O)COCCOCCNC(=O)COCCOCCNC(=O)[C@H](CN)NC(=O)CCCCCCCCCCCCCCCCC(=O)O)C(=O)N[C@H](CC(=O)N[C@H](CCCCN)C(N)=O)Cc2ccccc2)NC1=O)C(c1ccccc1)c1ccccc1)[C@@H](C)O [compound 269] (Isovaleryl-ETH[Dip]P[hCys][hCys][NMeK]([AEEA-AEEA-Dap-C18 diacid])[β3hF][dK]-NH2; disulfide 6-7)
- DC50 ([1]; HEK293 cells): 10 to 100 nM
- IC50 [2, 3]: 10 to 100 nM

SMILES: COC(=O)CCC(CCCC(C)C)C(=O)N[C@H](C(=O)N[C@@H](Cc1c[nH]cn1)C(=O)N[C@H](C(=O)N1CCC[C@H]1C(=O)N[C@H]1CSSC[C@@H](C(=O)N(C)[C@@H](CCCCNC(=O)CCCCCNC(=O)C[N+](C)(C)CCNC(=O)CCCCCCCCCCCCCCCCC(=O)O)C(=O)N[C@H](C(=O)N[C@H](CCCCN)C(N)=O)C(c2ccccc2)c2ccccc2)NC1=O)C(c1ccccc1)c1ccccc1)[C@@H](C)O (single isomer, unassigned) [compound 138]
- DC50 ([1]; at least 18 hours incubation): 10 to 100 nM
- IC50 [2, 4]: 100 to 500 nM

SMILES: CC[C@H](C)[C@@H](C(N)=O)N(C)C(=O)[C@@H](CCCCN)NC(=O)C[C@H](Cc1ccccc1)NC(=O)[C@H](CCCCNC(=O)COCCOCCNC(=O)COCCOCCNC(=O)[C@H](CN)NC(=O)CCCCCCCCCCCCCCCCC(=O)O)N(C)C(=O)[C@@H]1CSSC[C@H](NC(=O)[C@@H]2CCCN2C(=O)[C@@H](NC(=O)[C@H](Cc2c[nH]cn2)NC(=O)[C@@H](NC(=O)[C@H](CCC(=O)O)NC(=O)CC(C)C)[C@@H](C)O)C(c2ccccc2)c2ccccc2)C(=O)N1 [compound 262] (Isovaleryl-ETH[Dip]PCC[NMeK]([AEEA-AEEA-Dap-C18 diacid])[β3hF][dK][NMeI]-NH2; disulfide 6-7)
- DC50 ([1]; HEK293 cells): 10 to 100 nM
- IC50 [2, 3]: 10 to 100 nM

SMILES: CC(C)CC(=O)N[C@@H](CCC(=O)O)C(=O)N[C@H](C(=O)N[C@@H](Cc1c[nH]cn1)C(=O)N[C@H](C(=O)N1CCC[C@H]1C(=O)N[C@H]1CSSC[C@@H](C(=O)N(C)[C@@H](CCCCNC(=O)COCCOCCNC(=O)COCCOCCNC(=O)[C@H](CN)NC(=O)CCCCCCCCCCCCCCCCC(=O)O)C(=O)N[C@H](CC(=O)N[C@H](CCCCN)C(=O)N(C)[C@@H](Cc2ccccc2)C(N)=O)Cc2ccccc2)NC1=O)C(c1ccccc1)c1ccccc1)[C@@H](C)O [compound 263] (Isovaleryl-ETH[Dip]PCC[NMeK]([AEEA-AEEA-Dap-C18 diacid])[β3hF][dK][NMeF]-NH2; disulfide 6-7)
- DC50 ([1]; HEK293 cells): 10 to 100 nM
- IC50 [2, 3]: 10 to 100 nM

SMILES: C[C@@H](O)[C@H](NC(=O)[C@H](CCC(=O)O)NC(=O)C1CCNCC1)C(=O)N[C@@H](Cc1c[nH]cn1)C(=O)N[C@H](C(=O)N1CCC[C@H]1C(=O)N[C@H]1CSSC[C@@H](C(=O)N(C)[C@@H](CCCCNC(=O)COCCOCCNC(=O)COCCOCCNC(=O)[C@H](CN)NC(=O)CCCCCCCCCCCCCCCCC(=O)O)C(=O)N[C@H](CC(=O)N[C@H](CCCCN)C(N)=O)Cc2ccccc2)NC1=O)C(c1ccccc1)c1ccccc1 [compound 300] (H-[Inp]ETH[Dip]PCC[NMeK]([AEEA-AEEA-Dap-C18 diacid])[β3hF][dK]-NH2; disulfide 7-8)
- DC50 ([1]; HEK293 cells): 100 to 500 nM
- IC50 [2, 3]: 100 to 500 nM
